In this assay the test system is Myzus persicae. The assay is described as follows: whole plant or invertebrate. Conditions: foliar, 96 h; for LC50: read-out: LC50 (95% CI's).

SMILES strings stand for the structures. In brackets after ≈: the same amount, converted by molar mass.

As to `CC1(C)C(C=C(Cl)Cl)C1C(=O)OC(C#N)c1cccc(Oc2ccccc2)c1` (stereo not drawn) [Alpha-cypermethrin], the mortality (usually the percentage killed) at 16 µg/mL is 21.6%, the mortality at 40 µg/mL stood at 44.9%, the mortality at 60 µg/mL worked out at 52.2% and the mortality at 80 µg/mL turned out to be 86.9%. Moreover, the LC50 (commonly the concentration that kills 50% of the test population) was determined as 44.6 µg/mL (≈ 107 µM).

`Cc1nc(N(C)C)nc(OC(=O)N(C)C)c1C` [Pirimicarb] showed a mortality at 10 µg/mL of 20.3%, a mortality at 18.5 µg/mL of 36.1%, a mortality at 23 µg/mL of 82.8% and a mortality at 30 µg/mL of 76.2%. Besides, the LC50 stood at 19.7 µg/mL (≈ 82.7 µM).

(Values after patent publication US12672653B2, “Pest management” (priority 2017, dated 2026).)
